# Data from US20030203864A1, “Treatment of cancer” (priority 2002, published 2003).
# “Also recorded” adds a separate entry of the source.
# Columns and labels:
# Assay type in all cases: cell-based, human
# HMEC-1 cells = assay: HMEC-1 proliferation assay (Coulter counter); settings: 0.4 μM DNA enzyme
# Description: HMEC-1 culture and proliferation assay. SV40-transformed HMEC-1 cells were grown in MCDB 131 medium with EGF (10 ng/ml) and hydrocortisone (1 μg/ml) supplements and 10% FBS. […] The cells were quantitated by Coulter counter, 24 h after the addition of serum.
# HepG2 cells = assay: HepG2 cell proliferation (Coulter counter); settings: 0.75 μM DNAzyme, 5% FBS, 3 days
# Description: HepG2 cells were routinely grown in DMEM, pH 7.4, containing 10% fetal calf serum supplemented with antibiotics. The cells were trypsinized, resuspended in growth medium (to 10,000 cells/200 μl) and 200 μl transferred into sterile 96 well titre plates. Two days subsequently, 180 μl of the culture supernatant was removed, the cells were washed with PBS, pH 7.4, and refed with 180 μl of serum free media. After 6 h, the first transfection of DNAzyme (2 μg/200 μl wall, 0.75 μM final) was performed in tubes containing serum free media using FuGENE6 at a ratio of 1:3 (μg:μl). After 15 min incubation at room temperature, 180 μl of the culture supernantant was replaced with 180 μl of the transfection mix, After 24 h, 180 μl of the supernatant was replaced with 180 μl of new transfection mix, but this time in 5% FBS media. After 3 days, the cells were washed in PBS, pH 7.4, and resuspended by trypsinization in 100 μl trypsin-EDTA. The cells were shaken for approximately 5 min to ensure the cells were in suspension. The entire suspension was placed into 10 ml of Isoton II. That all the cells were transferred was ensured by pipetting Isoton II solution from tubes back into wells several times. Using Isoton II only, background cell number was determined. Each sample was counted three times and used to calculate mean counts and standard errors of each mean.
# EGR-1 = assay: Western blot of EGR-1 in HepG2 cells
# Sequence of EGR-1 (P18146 whole entry): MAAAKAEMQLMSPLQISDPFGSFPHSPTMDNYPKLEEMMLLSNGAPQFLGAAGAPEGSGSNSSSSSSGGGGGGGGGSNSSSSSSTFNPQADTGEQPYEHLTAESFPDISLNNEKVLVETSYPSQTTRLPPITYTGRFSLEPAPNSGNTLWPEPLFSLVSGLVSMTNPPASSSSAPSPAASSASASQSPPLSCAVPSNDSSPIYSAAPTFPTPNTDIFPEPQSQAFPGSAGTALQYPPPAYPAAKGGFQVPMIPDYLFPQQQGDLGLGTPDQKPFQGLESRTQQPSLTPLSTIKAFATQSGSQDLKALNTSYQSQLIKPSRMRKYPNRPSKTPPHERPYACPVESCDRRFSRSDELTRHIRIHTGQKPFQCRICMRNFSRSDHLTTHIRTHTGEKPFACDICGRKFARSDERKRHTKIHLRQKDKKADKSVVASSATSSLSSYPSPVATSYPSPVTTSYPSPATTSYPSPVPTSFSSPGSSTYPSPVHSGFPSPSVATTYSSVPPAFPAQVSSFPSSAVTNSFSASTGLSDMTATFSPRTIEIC
substance,measurement,setting,value
"DzA: DNAzyme targeting human EGR-1 mRNA (arms hybridize to nts 189-207), 5′-caggggacaGGCTAGCTACAACGAcgttgcggg (DNA CAGGGGACAGGCTAGCTACAACGACGTTGCGGG; DNA, backbone and methylation of C not given here)",HMEC-1 replication (total cell counts),HMEC-1 cells,inhibited
same,serum-stimulated HepG2 cell proliferation,HepG2 cells,almost completely suppressed; also recorded: inhibited
same,EGR-1 expression in HepG2 cells,EGR-1,strongly inhibited
